Experimental data as given in patent publication US20110008279A1, “Methods and Compositions Relating to Adhesins as Adjuvants” (priority 2005, published 2011).

Tests used:
human monocytes [1] = experiment: Long-term differentiation of monocytes, surface markers; format: cell-based; details: culture up to 7 days
Protocol: (§1) In order to evaluate the possible long-term, differentiation effect of NadA, adherent monocytes were treated with medium alone, NadAΔ351-405 or E. coli LPS and cells were cultured for seven days. At day 4 the agonists were added again to ensure a constant stimulation. Cell morphology was monitored by light microscopy after 1, 2, 3 and 7 days. […] NadAΔ351-405 thus induces both alteration cell morphology and distribution, this is a good indicator of monocyte activation and differentiation.
The long-term, differentiation effect of NadAΔ351-405 on monocytes was further investigated by measuring the expression of the antigen presentation marker MHC-II, co-stimulatory molecules CD80 and CD86 and cell-specific molecules: CD14 (monocyte), CD16 (macrophage) and CD1a (Dendritic cell).

human monocytes [2] = experiment: Long-term morphology of monocytes (light microscopy); format: cell-based
Protocol: as §1

monocytes = experiment: NadA binding to monocytes; set-up: species or system human
Protocol: The graphs plot the mean fluorescence intensities (MFI) ±SD measured in monocytes that have been incubated with NadAΔ351-405-Alexa, at different concentrations (A), or with 100 nM NadAΔ351-405-Alexa in presence of increasing concentrations of unlabelled protein (B), for 3 hours at 37° C. or 0° C. The reported data are the average of three independent experiments repeated in triplicate.
The dose-dependent preferential association of NadA to CD14^+ monocytes was also confirmed by MFI analysis. Competition using non-labelled ligand ascertained whether NadA binding was specific (FIG. 12). […] Based on the molecular weight of the NadA monomer, this value is in fact ˜1 μM, since the recombinant protein used in the experiment is a homo-trimer.

human macrophages [3] = experiment: Morphology of macrophages (light microscopy); format: cell-based
Protocol: DCs cultured for 5 days in 6-well plates (Costar) were treated with recombinant human IFN-γ (1000 U/ml) for 18 h before NadA (1.5 μM) or LPS (1 μg/ml) stimulation for 4 h. Control cultures were untreated cells or treated with IFN-γ alone.
The same experiment was also carried out using macrophages.

human macrophages [4] = experiment: Cytokine and chemokine secretion by human macrophages (Bio-Plex, IL-23 ELISA); format: cell-based
Protocol: The secretion of various immune mediators by isolated adherent human […] and macrophages was assayed with a Bio-Plex immune array. The pro-inflammatory cytokines IL-1α, IL-1β, TNFα, IFNγ, IL-6, the growth factor GM-CSF, the regulatory cytokines IL-12 (p40), IL-12 (p70), IL-10, as well as the chemokines IL-8, MCP-1, MIP-1α, IP-10, RANTES and EOTAXIN were assayed. The lymphocyte cytokines IL-2, IL-3, IL-4, IL-5, IL-7, IL-13 and IL-15 were also assayed. IL-23 expression was assayed using an ELISA assay. No secretion of IL-2, IL-3, IL-4, IL-5, IL-7, IL-13 or IL-15 was detected.
Peripheral monocytes and macrophages were stimulated with different concentrations of NadAΔ351-405, with or without LPS (0.2 μg/ml) and IFNγ (1000 U/ml), and with purified E. coli or N. meningitis OMV.

naïve T cells = experiment: Intracellular detection of IFN-γ and IL-4 in T cells by flow cytometry; format: cell-based, human; details: T cells activated by IFN-γ primed, matured mo-DCs
Protocol: Mo-DC pre-treated in various conditions were co-cultured with naïve T cells for five days and re-stimulated with ionomycin 1 μg/ml and PMA 10 ng/ml for 2.5 h and for 3 h in the presence of a Brefeldin-A, (10 μg/ml final concentration). Cells were then washed and fixed for 15 min (Fix and Penn cell permeabilization kit, Caltag). After one washing step cells were permeabilised and stained with FITC conjugated anti interferon-γ mAB (BD-Pharmigen) and PE conjugated anti IL-4 mAb (Caltag) or with irrelevant isotype control for 30 min. Then cells were washed again, resuspended and analysed by flow cytoflorimetry.

Substance: NadAΔ351-405
- CD1a expression (human monocytes [1]): not increased
- CD14 expression (human monocytes [1]): steadily increased on days two and three
- CD16 expression (human monocytes [1]): increased more intensely than in the control cells in the first three days
- CD80 expression (human monocytes [1]): not over-expressed
- CD86 expression (human monocytes [1]): increased more intensely than in the control cells in the first three days
- HLA-DR surface expression (human monocytes [1]): reached a maximal expression level on day three
- cell morphology (human monocytes [2]; 3-day incubation): became elongated and tended to cluster
- number of surviving cells with respect to the control (human monocytes [2]; 7 culture days): greatly increased
- decrease of the signal associated to monocytes by excess non-labelled NadA (monocytes; 5 uM non-labelled, 125 nM Alexa-NadA, 37° C., BafA1): −50%
- affinity (Kd) of association to monocyte (monocytes; NadA-I125 conjugate, Scatchard Plot): ~3000 nM
- Kd of association to monocyte, value for the homo-trimer (monocytes; corrected because the recombinant protein is a homo-trimer): ~1000 nM
- cell clustering compared to LPS treatment (human macrophages [3]): reduced clustering
- EOTAXIN expression (human macrophages [4]): decrease
- GM-CSF secretion (human macrophages [4]): No secretion
- IL-1α production (human macrophages [4]): No IL-1α was produced
- IL-1β and TNFα production (human macrophages [4]): produced only IL-1β and TNFα
- IL-10 production (human macrophages [4]): induced the production
- IP-10 production (human macrophages [4]; NadA alone): In neither monocytes nor macrophages was NadA alone able to produce IP-10
- IL-12(p40) expression (human macrophages [4]; NadA alone, even in the presence of LPS and IFNγ): decrease
- IL-6 secretion (human macrophages [4]; together with IFNγ): increasing secretions
- IFN-γ+ T cells, % of total T cell population (naïve T cells): 13-31%
- IFN-γ+/IL-4+ T cells, % of total T cell population (naïve T cells): 4-12%
- IL-4+ T cells, % of total T cell population (naïve T cells): 3-18%
